Assay results: patent US20240002846A1, “COMPOSITIONS AND METHODS FOR THE DIAGNOSIS AND TREATMENT OF ITCH” (Duke University, priority 2020, published 2024)
“Also recorded” adds a separate entry of the source.

Experiments:
[1] = biological target: T1, hTRPV4 (Homo sapiens, UniProt Q9HBA0); experiment: Inside-out patch-clamp, hTRPV4; format: biochemical; conditions: 5 μM LPC 18:1; WT-hTRPV4
T1 construct: expressed in transfected cells; host or cells: HEK293 (ATCC CRL-1573)
Experimental: (§1) Cell culture and transfection. HEK293 cells (ATCC® CRL-1573) were cultured on poly-D-lysine coated coverslips in 24-well plate containing DMEM media with high-Glucose (Gibco, Gaithersburg, MD) supplemented with 10% fetal bovine serum (FBS, HyClone Laboratories, Logan, UT) and 100 U/mL of penicillin/streptomycin (Gibco, Gaithersburg, MD). Cell cultures were maintained with 5% of CO2 in a humidified incubator at 37° C. HEK cells were transfected with rat or human wild type or mutant TRPV4 channels with EGFP or YFP coupled to their C-termini (1.5 μg of plasmid for excised patch clamp and Ca^2+ imaging and 200 ng for single-channel experiments). […]
(§2) Electrophysiology. Currents were recorded using the inside-out configuration of the patch-clamp technique (Hamill et al. Pflugers Arch. 1981, 391, 85-100). […] Mean current values in response to GSK1016790A or LPC 18:1 were measured after channel activation had reached the steady-state (˜3 min). […] Currents were low-pass filtered at 2 kHz and sampled at 10 kHz with an EPC 10 amplifier (HEKA Elektronik) and were plotted and analyzed with Igor Pro (Wavemetrics Inc.).

[2] = biological target: T2, hTRPV4-121AAWAA125 (Homo sapiens, UniProt Q9HBA0, K121A/K125A/R122A/R124A); experiment: Inside-out patch-clamp, hTRPV4-121AAWAA125; format: biochemical; conditions: 5 μM LPC 18:1
T2 construct: expressed in transfected cells; host or cells: HEK293
Experimental: as §1, §2

[3] = biological target: T3, hTRPV4-R746G (Homo sapiens, UniProt Q9HBA0, R746G); experiment: Inside-out patch-clamp, hTRPV4-R746G; format: biochemical; conditions: 5 μM LPC 18:1
T3 construct: expressed in transfected cells; host or cells: HEK293
Experimental: as §1, §2

[4] = system: pERK expression; experiment: pERK Western blot in cultured mouse keratinocytes; format: cell-based; conditions: inhibitor 10 μM
Experimental: Primary mouse keratinocytes were cultured following previous protocol (Chen et al. J. Biol. Chem. 2016, 291, 10252-10262). The epidermis from the back skin of newborn WT or keratinocyte-Trpv4 cKO mice was separated from the dermis by floating the skin on 0.25% trypsin (Gibco, Gaithersburg, MD) for 14-18 h at 4° C. Basal keratinocytes were separated from the cornified sheets by filtration through a […] cell strainer. Keratinocytes were plated on collagen I-coated dishes or glass coverslips and grown in EME media (Gibco, Gaithersburg, MD) containing 8% chelex (Bio-rad, Hercules, CA)-treated FBS with the final Ca^2+ adjusted to 0.05 mM, bovine pituitary extract (50 μg/mL), epidermal growth factor (5 ng/mL), and lx antibiotics/antimycotics (Gibco, Gaithersburg, MD) in a humidified incubator with 5% CO2 at 37° C. for 5-7 days until use. To knockdown Trpv4 in isolated keratinocytes from newborn keratinocyte-Trpv4 cKO mice, cells were treated with 4-OH tamoxifen at 500 nM for 72 h.
Western Blot. Routine procedures were followed (Chen et al. J. Biol. Chem. 2016, 291, 10252-10262, Chen et al. Pain 2014, 155, 2662-2672). […] Immunoblot band intensity was quantitated using the software Image J and ERK served as a control for pERK expression.

T1 sequence (Q9HBA0 whole entry): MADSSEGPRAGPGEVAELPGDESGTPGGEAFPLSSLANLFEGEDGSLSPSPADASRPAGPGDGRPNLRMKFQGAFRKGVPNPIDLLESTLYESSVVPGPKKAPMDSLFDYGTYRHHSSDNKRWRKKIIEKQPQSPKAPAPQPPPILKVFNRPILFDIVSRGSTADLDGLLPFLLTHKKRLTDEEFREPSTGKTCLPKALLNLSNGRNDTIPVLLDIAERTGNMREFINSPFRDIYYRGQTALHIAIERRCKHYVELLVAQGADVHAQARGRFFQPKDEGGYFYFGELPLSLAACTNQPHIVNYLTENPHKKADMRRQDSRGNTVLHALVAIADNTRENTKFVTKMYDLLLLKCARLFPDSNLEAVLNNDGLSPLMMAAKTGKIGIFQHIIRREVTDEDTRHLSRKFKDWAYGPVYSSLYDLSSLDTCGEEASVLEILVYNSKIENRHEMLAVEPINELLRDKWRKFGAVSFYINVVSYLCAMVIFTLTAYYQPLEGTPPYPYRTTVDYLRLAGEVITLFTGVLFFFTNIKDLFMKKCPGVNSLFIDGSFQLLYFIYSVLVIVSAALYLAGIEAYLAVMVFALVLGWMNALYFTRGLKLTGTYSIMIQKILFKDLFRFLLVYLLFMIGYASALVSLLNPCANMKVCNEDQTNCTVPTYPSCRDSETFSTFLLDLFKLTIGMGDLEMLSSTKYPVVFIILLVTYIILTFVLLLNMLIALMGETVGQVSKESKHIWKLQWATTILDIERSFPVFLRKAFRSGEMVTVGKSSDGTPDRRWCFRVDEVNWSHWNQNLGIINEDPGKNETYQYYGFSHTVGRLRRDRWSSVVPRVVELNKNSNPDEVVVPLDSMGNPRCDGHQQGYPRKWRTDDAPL
T3 sequence (Q9HBA0 whole entry R746G): as the sequence (Q9HBA0 whole entry) above, with R746G counted along it
T2 sequence (Q9HBA0 whole entry K121A/R122A/R124A/K125A): as the sequence (Q9HBA0 whole entry) above, with K121A, R122A, R124A, K125A counted along it

Compound: LPC 18:1
- average activation of currents, normalized to 1 μM GSK101 [1]: 48±6%
- average activation of currents, normalized to 1 μM GSK101 [2]: 43±4%
- average activation of currents, normalized to 1 μM GSK101 [3]: 13±4%

Compound: Cc1c(C(=O)Nc2cccc(C(F)(F)F)c2)cc(-c2ccccc2)n1CCCN1CCOCC1 [HC067047]
- effect on LPC-increased pERK expression [4]: eliminated the increase; also recorded: abolished
